{
  "source": "paper PMC8880564",
  "about": "“Design, Synthesis, and Biological Evaluation of a Novel VEGFR-2 Inhibitor Based on a 1,2,5-Oxadiazole-2-Oxide Scaffold with MAPK Signaling Pathway Inhibition” (Pharmaceuticals, 2022)",
  "key": {"p38": {"system": "p38", "assay": "ELISA assay in HepG-2 cells", "type": "cell-based, human", "details": "HepG-2, 11 µM", "procedure": "(§1) The mitogen-activated protein kinase (MAPK) pathway is considered to be a key player in the gene expression of survival, proliferative, and anti-apoptotic proteins. Aberrant dysregulation in the MAPK pathway activity has been linked to the overall poor prognosis in various cancers. […] Additionally, compound 12b was further tested against p38, MKK3, and JNK using ELISA assay protocols at a concentration of 11 µM. […] The overexpression of JNK might have contributed to the NO released from 12b and reactive oxygen species (ROS). In summary, the novel anticancer lead compound 12b is worthy of further investigation and activity improvement.\n(§2) The p38, MKK3, and JNK assays were performed according to the manufacturer’s ELISA assay protocols. Briefly, a 96-well plate was seeded with a cell density of 10,000–40,000 cells/well. Then, 50 µL of compound 12b or control (DMSO) was added to appropriate wells in triplicate. Following this, 50 µL of the antibody cocktail (in case of p38; Cat. No. ab221012, Abcam (Waltham, MA, USA) and MKK3; Cat. No. PEL-MKK3-S189-T, RayBiotech, Peachtree Corners, GA, USA) was added to each well. The plate was then sealed and incubated for 1–2.5 h at room temperature with gentle shaking. Each well was washed with 1X Wash Buffer PT (4 × 350 µL), and then the plate was inverted and tapped gently against clean paper towels to remove excess liquid. In case of JNK (Cat. No. ab176662, Abcam, Waltham, MA, USA), this washing step was applied before and after adding 1X rabbit […] antibody, then 100 µL of HRP-conjugated anti-rabbit IgG solution was added and the plate was incubated for 1 h at room temperature with gentle shaking followed by washing (4 × 350 µL). After that, 100 µL of TMB Substrate was added to each well and incubated for 15–30 min in the dark with gentle shaking. Finally, 100 µL of Stop Solution was added to each well and the plate was shaken for 1 min to mix well. The OD was recorded at 450 nm."}, "MKK3": {"system": "MKK3", "assay": "ELISA assay in HepG-2 cells", "type": "cell-based, human", "details": "HepG-2, 11 µM", "procedure": "as §1, §2"}, "JNK": {"system": "JNK", "assay": "ELISA assay in HepG-2 cells", "type": "cell-based, human", "details": "HepG-2, 11 µM", "procedure": "as §1, §2"}, "A2780": {"system": "A2780", "assay": "MTT cell viability assay", "type": "cell-based", "details": "Homo sapiens, Ovarian, 48 h, ± SD of triplicates", "procedure": "(§3) In addition, the morphological changes in 12b-treated cancer cell lines at concentrations of 6.25 and 12.50 µM are shown in Figure 6.\n(§4) According to the procedures of Skehan et al. (with minor modifications), the cancer or normal cells were seeded in a 96-well plate (100 µL/well). After overnight incubation at 37 °C and 5% CO2, the cells were incubated with 50 µM of each tested compound or DMSO (0.5% v/v). After 48 h of incubation, MTT (3-(4,5-dimethylthiazoyl)-2,5-diphenyl-tetrazolium bromide) 5 mg/mL Phosphate-Buffered Saline (PBS) was added, and the plate was incubated for 4 h. After that, acidified sodium dodecyl sulfate (SDS) solution (10% SDS containing 0.01N HCl in 1× PBS) was used to solubilize formazan crystals. The absorbance was measured after 14 h of incubation at λ570–630 nm by a Biotek plate reader (Gen5™)."}, "HepG2": {"system": "HepG2", "assay": "MTT cell viability assay", "type": "cell-based", "details": "Homo sapiens, Liver, 48 h, ± SD of triplicates", "procedure": "as §3, §4"}, "SKOV-3": {"system": "SKOV-3", "assay": "MTT cell viability assay", "type": "cell-based", "details": "Homo sapiens, SK-OV-3, Ovarian, 48 h, ± SD of triplicates", "procedure": "as §3, §4"}, "MDA-MB-231": {"system": "MDA-MB-231", "assay": "MTT cell viability assay", "type": "cell-based", "details": "Homo sapiens, Breast, 48 h, ± SD of triplicates", "procedure": "as §3, §4"}, "HT-29": {"system": "HT-29", "assay": "MTT cell viability assay", "type": "cell-based", "details": "Homo sapiens, Colon, 48 h, ± SD of triplicates", "procedure": "as §3, §4"}, "A2780CP": {"system": "A2780CP", "assay": "MTT cell viability assay", "type": "cell-based", "details": "Homo sapiens, A2780C/P, Ovarian, 48 h, ± SD of triplicates", "procedure": "as §3, §4"}, "MCF-7": {"system": "MCF-7", "assay": "MTT cell viability assay", "type": "cell-based", "details": "Homo sapiens, MCF7, Breast, 48 h, ± SD of triplicates", "procedure": "as §3, §4"}, "p21": {"system": "p21", "assay": "Western blot analysis in HepG2 cells", "type": "cell-based, human", "details": "HepG2, 48 h", "procedure": "as §1\n(§5) The cells were seeded (2.5 × 10^5 cells/mL) and treated as described above. After 48 h of incubation with compound 12b, cells were lysed by RIPA buffer containing 1x protease and phosphatase inhibitor cocktail (Thermo Scientific™, Waltham, MA, USA). The supernatant was collected after centrifugation at 4 °C and the Pierce BCA Protein Assay Kit (Thermo Scientific™, 23225, Waltham, MA, USA) was used for protein concentration detection. Proteins were then separated using SDS-PAGE at 100 V for 45 min. After that, the proteins were transferred to a nitrocellulose membrane. The membrane was subjected to a suitable primary antibody overnight. Then, an appropriate HRP-conjugated secondary antibody was used. GAPDH was used as a loading control. The membrane was developed using WesternBright® ECL (Advansta Inc., K-12045-D20, San Jose, CA, USA), and the signal was detected using ChemiDoc XRS^+ (1708265, Bio-Rad Laboratories, Hercules, CA, USA)."}, "pERK": {"system": "pERK", "assay": "Western blot analysis in HepG2 cells", "type": "cell-based, human", "details": "HepG2, 48 h", "procedure": "as §1, §5"}, "HepG2 cells": {"system": "HepG2 cells", "assay": "Cell-cycle analysis by flow cytometry (PI)", "type": "cell-based, human", "details": "HepG2, 48 h; 5.6 in DMSO-treated cells", "procedure": "The mechanism of action of 12b was investigated by evaluating its effectiveness in modulating the cell cycle and induction of apoptosis.\nAccording to Gray et al., HepG2 cells were seeded in a 6-well plate (2 mL/well) and incubated at 37 °C and 5% CO2 for 12 h. Cell synchronization at the G1 phase was performed by incubating the cells with serum-free medium for 12 h, then cells were treated with 5.5 or 11 μM of 12b. After 48 h of incubation, cells were washed twice with ice-cold 1× PBS and subjected to trypsinization. The detached cells were centrifuged at 500× g for 5 min at 4 °C. Then, the cell pellet was resuspended in ice-cold 1× PBS and fixed with absolute ethanol. After 2 h of incubation at −20 °C, the fixed cells were washed with ice-cold 1× PBS. The cell pellet was resuspended in propidium (PI)/RNase (BD Biosciences, BDB550825, Franklin Lakes, NJ, USA) and incubated for 30 min at room temperature (RT) in the dark, then the DNA content in each phase was measured by flow cytometry using BD FACS Calibur."}},
  "data": [
    {"compound": "[O-][n+]1onc(-c2ccccc2)c1CNc1ccc(Nc2nc(C(F)(F)F)nc3c2cnn3-c2ccc(Br)cc2)cc1", "note": "[12b, 3-(((4-((1-(4-bromophenyl)-6-(trifluoromethyl)-1H-pyrazolo[3,4-d]pyrimidin-4-yl)amino)phenyl)amino)methyl)-4-phenyl-1,2,5-oxadiazole 2-oxide]", "values": [
      {"measurement": "relative expression of p38", "setting": "p38", "result": "low expression"},
      {"measurement": "relative expression of MKK3", "setting": "MKK3", "result": "low expression"},
      {"measurement": "relative expression of JNK", "setting": "JNK", "result": "overexpressed"},
      {"measurement": "IC50", "setting": "A2780", "result": "15 ± 0.15", "unit": "µM"},
      {"measurement": "IC50", "setting": "HepG2", "result": "11.5 ± 0.5", "unit": "µM"},
      {"measurement": "IC50", "setting": "SKOV-3", "result": "18.6 ± 0.2", "unit": "µM"},
      {"measurement": "IC50", "setting": "MDA-MB-231", "result": "13 ± 0.2", "unit": "µM"},
      {"measurement": "IC50", "setting": "HT-29", "result": "15 ± 0.24", "unit": "µM"},
      {"measurement": "IC50", "setting": "A2780CP", "result": "11.6 ± 0.1", "unit": "µM"},
      {"measurement": "IC50", "setting": "MCF-7", "result": "22.3 ± 0.3", "unit": "µM"},
      {"measurement": "expression of p21", "setting": "p21", "result": "over-expression"},
      {"measurement": "level of phosphorylated ERK", "setting": "pERK", "result": "decreased the level"},
      {"measurement": "cell-cycle arrest at subG1", "setting": "HepG2 cells", "result": 24}
    ]}
  ]
}
